Reference: patent publication US20190203253A1, “METHODS OF IDENTIFYING AND TREATING CANCER PATIENTS WITH AN EPHB6 DEFICIENCY” (University of Saskatchewan, priority 2016, published 2019)
“Also recorded” adds a separate entry of the source.

Legend:
[1] = test system: BT-20 cells (EPHB6-targeting shRNA vs non-silencing shRNA); assay: Drug sensitivity assay (resazurin), SRC inhibitors, BT-20 cells with silenced EPHB6; format: cell-based, human; settings: BT-20 with EPHB6-targeting shRNA vs non-silencing shRNA, 96 h (FIGS. 6A-6E)
Protocol: FIG. 6. SL relation between EPHB6 and SRC in BT-20 TNBC cells. A. Triple negative breast cancer cells, BT-20, were transduced with EPHB6-targeting shRNA (BT20-66-shRNA), or non-silencing shRNA (BT2O-NS). EPHB6 expression was analyzed by Western blotting with anti-EPHB6. Western blotting with anti-tubulin was used as a loading control. B. BT20-66-shRNA and BT2O-NS cells were cultured in 96-well plates with indicated concentrations of SU6656 or matching volumes of DMSO for 96 h. Cells were stained with resazurin and fluorescence was measured using a SpectraMax M5 plate reader to determine cell suppression. Five wells were analyzed per condition. […] C. […] Cells were stained with resazurin and fluorescence was measured using a SpectraMax M5 plate reader to determine cell suppression. Five wells were analyzed per condition. […] PI-stained cells were counted in at least 10 randomly captured frames. […] Stained cells were analyzed by flow cytometry and the FlowJo software. […]
MDA-MB-231 and BT-20 cell monolayers were incubated in 96-well plates for 72 h and 96 h, respectively, with indicated concentrations of KX2-391 or SU6656, or matching volumes of DMSO as a solvent control. Treated cells were stained using resazurin by following the manufacturer's instructions and fluorescence was measured using a SpectraMax M5 microplate reader.

[2] = test system: MDA-pc3 and MDA-B6 TNBC tumors; assay: Tumor xenograft study, tumor growth; format: in vivo, NOD-SCID mice; settings: 5 mg/kg orally twice a day, MDA-pc3 vs MDA-B6 xenografts (FIG. 7A)
Protocol: FIG. 7. Analysis of the SL interaction between EPHB6 and SRC in TNBC cells and murine xenografts. A. MDA-pc3 and MDA-B6 cells were injected into the mammary fat pad region of 4-6 weeks old NOD-SCID mice (1×10^6 cells per mouse). Mice with detectable tumors were treated twice per day with 5 mg/kg KX2-391 in DMSO/water solvent or solvent alone by oral feeding (at least 6 animals per each experimental condition). Tumor size was measured every 3 days and tumor volume was calculated with the equation: A/2*B^2, where A was long and B was short diameter of the tumor. The reduction in tumor growth in KX2-391-treated mice is presented as a percentage relative to matching solvent controls. The graph summarizes two independent experiments. […] Four representative fields (at 3, 6, 9, and 12 o'clock) per each stained tumor section (one for each extracted tumor) were imaged at 100× magnification and the blood vessel density per each field was analyzed with the Image-Pro Premier software. […]
Breeder pairs of NOD SCID gamma mice were purchased from The Jackson Laboratory and a colony was established at the Laboratory Animal Services Unit, University of Saskatchewan. […] Digital caliper measurements were taken every 3 days and tumor volume was calculated by the formula A/2*B^2 (where A and B were the long and short diameters of the tumor respectively). […]

prostate cancer = settings: reference [26]; cited from earlier work
[3] = test system: MDA-pc3 and MDA-B6 cells (MDA-MB-231); assay: Drug sensitivity assay (resazurin), SRC inhibitors, MDA-MB-231-derived cells; format: cell-based, human; settings: MDA-pc3 vs MDA-B6, increasing concentrations, 72 h, resazurin (FIG. 4A, 4B)
Protocol: FIG. 4. […] C. […] All experiments were performed at least three times.

SMILES: O=C(Cc1ccc(-c2ccc(OCCN3CCOCC3)cc2)cn1)NCc1ccccc1 [KX2-391]
- cell suppression after silencing of EPHB6 expression [1]: strongly increased their suppression
- suppression of tumor growth, EPHB6-deficient vs EPHB6-expressing tumors [2]: more efficiently suppresses growth of EPHB6-deficient TNBC tumors; also recorded: significantly more effective in suppressing EPHB6-deficient TNBC tumors
- clinical effect in phase II trials for prostate cancer (prostate cancer): relatively modest effect
- cell suppression relative to DMSO control, EPHB6-deficient vs EPHB6-expressing cells [3]: significantly stronger suppression of EPHB6-deficent cells
